The target in test [1] is T1, Sphingosine kinase 1/2 (Homo sapiens) (UniProt Q9NRA0+Q9NYA1). As to the kind of experiment: Inhibition of SPHK1/SPHK2 in human HL-60 cells assessed as induction of apoptosis by measuring spindle assembly checkpoint arrest at 3 nM after 16 hrs by Western blot analysis. Type of test: cell-based. On the technique in general: A western blot detects proteins with antibodies after separation by electrophoresis.

Test [2] has as its target Cyclin-dependent kinase 1 (Homo sapiens) (UniProt P06493). Nature of the test: Activation of CDK1 in human HL-60 cells assessed as activation of caspase 7 at 5 uM after 24 hrs in presence of Ro-3306 by Western blot analysis. The class given is cell-based.
Test [3] addresses T1, Sphingosine kinase 1/2 (Homo sapiens). Nature of the test: Inhibition of SPHK1/SPHK2 in human HL-60 cells assessed as sphingosine level assessed per 10^6 cells at 5 uM after 24 hrs by LC-ESI/MS analysis (reference value: 18.3 +/- 3.5 pmol). The class given is cell-based.
Test [4] has the same target. Nature of the test: Inhibition of SPHK1/SPHK2 in human HL-60 cells assessed as sphingosine-1-phosphate level assessed per 10^6 cells at 5 uM after 24 hrs by LC-ESI/MS analysis (reference value: 3.1 +/- 0.3 pmol). The class given is cell-based.
Test [5] addresses Cyclin-dependent kinase 1 (Homo sapiens) (UniProt P06493). As to the kind of experiment: Activation of CDK1 in human HL60/VCR cells assessed as activation of caspase 7 at 5 uM after 24 hrs in presence of Ro-3306 by Western blot analysis. Type of test: cell-based.
The target in test [6] is Sphingosine kinase 1 (Homo sapiens, UniProt Q9NYA1). Nature of the test: Inhibition of recombinant His6x-tagged human SphK1 expressed in HEK293 cells assessed as reduction in S1P formation using D-erythro-sphingosine as substrate by […].
The subject of test [7] is HL-60. Nature of the test: Cytotoxicity against human HL-60 cells assessed as reduction in cell viability after 48 hrs by MTT assay. Type of test: functional, cell-based. Particulars: HL-60, 48 h. A general note: Tetrazolium dyes change colour on reduction, which living cells bring about.
Test [8] in a line: Cytotoxicity against human HL60/VCR cells assessed as reduction in cell viability after 48 hrs by MTT assay. The class given is functional, cell-based.
For test [9], the target named is Cyclin-dependent kinase 1 (Homo sapiens) (UniProt P06493). Nature of the test: Activation of CDK1 in human HL60/VCR cells assessed as induction of Bcl2 phosphorylation at Ser70 residue at 5 uM after 24 hrs in presence of Ro-3306 by Western blot analysis. Type of test: cell-based.
In test [10] the target is T1, Sphingosine kinase 1/2 (Homo sapiens). As to the kind of experiment: Inhibition of SPHK1/SPHK2 in human HL-60 cells assessed as C18:0 ceramide level assessed per 10^6 cells at 5 uM after 24 hrs by LC-ESI/MS analysis (reference value: 1.6 +/- 0.2 pmol). Type of test: cell-based.
Test [11] deals with Cyclin-dependent kinase 1 (Homo sapiens) (UniProt P06493). As to the kind of experiment: Activation of CDK1 in human HL-60 cells assessed as induction of Bcl2 phosphorylation at Ser70 residue at 5 uM after 24 hrs in presence of Ro-3306 by Western blot analysis. The class given is cell-based.
Test [12] has as its target T1, Sphingosine kinase 1/2 (Homo sapiens). As to the kind of experiment: Inhibition of SPHK1/SPHK2 in human HL-60 cells assessed as C16:0 ceramide level assessed per 10^6 cells at 5 uM after 24 hrs by LC-ESI/MS analysis (reference value: 33.5 +/- 4.1 pmol). Type of test: cell-based.
Test [13] has the same target. Nature of the test: Inhibition of SPHK1/SPHK2 in human HL-60 cells assessed as induction of apoptosis by measuring spindle assembly checkpoint arrest at 20 nM after 16 hrs by Western blot analysis. The class given is cell-based.
Test [14] addresses T2, Tubulin (Homo sapiens) (UniProt P68371+Q9H4B7+P0DPH7+P68366+Q13509+Q71U36+P04350+Q3ZCM7+P07437+P68363+Q9BQE3+Q6PEY2+Q13885+Q9BVA1+Q9BUF5). Nature of the test: Inhibition of tubulin polymerization in human MOLM-13 cells assessed as disruption of microtubule network at 100 nM after 18 hrs by FITC-staining based flow cytometry analysis. Type of test: cell-based. For orientation: In flow cytometry, cells or beads pass a laser one at a time.

Test [15] concerns the target T2, Tubulin (Homo sapiens). As to the kind of experiment: Inhibition of tubulin polymerization in human MOLM-13 cells assessed as disruption of microtubule network at 200 nM after 18 hrs by FITC-staining based flow cytometry analysis. Type of test: cell-based.

Active and inactive are the calls of the source. No cut-off for these calls is given here.

T1 sequence (Q9NRA0 whole entry, looked up): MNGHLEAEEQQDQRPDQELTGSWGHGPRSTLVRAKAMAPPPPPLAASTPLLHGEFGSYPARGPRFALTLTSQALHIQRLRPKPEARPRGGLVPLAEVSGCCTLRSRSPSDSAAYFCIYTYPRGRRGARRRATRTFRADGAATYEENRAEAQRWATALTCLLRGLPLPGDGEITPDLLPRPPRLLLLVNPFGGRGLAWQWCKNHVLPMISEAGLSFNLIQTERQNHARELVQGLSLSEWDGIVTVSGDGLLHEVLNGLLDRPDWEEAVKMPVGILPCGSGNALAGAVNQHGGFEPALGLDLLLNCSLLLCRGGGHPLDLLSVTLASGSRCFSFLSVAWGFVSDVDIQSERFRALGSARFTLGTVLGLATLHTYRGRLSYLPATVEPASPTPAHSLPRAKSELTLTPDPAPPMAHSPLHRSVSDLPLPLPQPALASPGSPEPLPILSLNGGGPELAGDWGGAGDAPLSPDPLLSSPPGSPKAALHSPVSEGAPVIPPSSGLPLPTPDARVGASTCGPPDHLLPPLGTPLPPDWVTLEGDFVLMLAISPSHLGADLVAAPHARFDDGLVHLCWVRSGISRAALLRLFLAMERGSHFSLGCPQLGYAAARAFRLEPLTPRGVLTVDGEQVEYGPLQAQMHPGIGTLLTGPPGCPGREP
T1 sequence (Q9NYA1 whole entry, looked up): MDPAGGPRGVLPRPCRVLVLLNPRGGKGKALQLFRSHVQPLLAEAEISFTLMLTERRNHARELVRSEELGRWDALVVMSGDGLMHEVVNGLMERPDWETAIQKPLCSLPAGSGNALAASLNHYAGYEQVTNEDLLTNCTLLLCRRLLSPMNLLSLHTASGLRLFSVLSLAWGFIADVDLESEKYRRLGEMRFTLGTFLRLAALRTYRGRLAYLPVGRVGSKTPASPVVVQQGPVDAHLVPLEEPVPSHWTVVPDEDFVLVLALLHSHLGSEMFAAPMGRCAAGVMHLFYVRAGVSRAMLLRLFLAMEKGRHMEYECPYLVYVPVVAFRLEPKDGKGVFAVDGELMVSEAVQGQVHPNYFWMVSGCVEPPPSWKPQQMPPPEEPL
Sequence of Cyclin-dependent kinase 1 (Homo sapiens) (P06493 whole entry, looked up): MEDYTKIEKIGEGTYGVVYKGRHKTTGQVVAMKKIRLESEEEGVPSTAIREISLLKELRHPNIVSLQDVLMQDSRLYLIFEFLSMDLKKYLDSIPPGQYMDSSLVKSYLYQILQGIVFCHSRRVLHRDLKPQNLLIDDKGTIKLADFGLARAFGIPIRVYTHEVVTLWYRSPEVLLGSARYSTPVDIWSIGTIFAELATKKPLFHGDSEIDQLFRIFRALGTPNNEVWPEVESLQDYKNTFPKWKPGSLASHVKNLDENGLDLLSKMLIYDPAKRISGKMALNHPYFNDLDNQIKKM
Sequence of Sphingosine kinase 1 (Q9NYA1 whole entry): as the sequence (Q9NYA1 whole entry, looked up) above

For the compound `Cc1ccc(C(=O)N(CCCN)[C@@H](c2nc3cc(Cl)ccc3c(=O)n2Cc2ccccc2)C(C)C)cc1`, in [1], the result was Active.
As a reminder, the IC50 is the concentration that inhibits the measured activity by half. In the case of `COc1ccc(-c2cc(C(=O)N/N=C(\C)c3ccc(OC)c(OC)c3)[nH]n2)cc1`, the outcome in test [2], in [5], in [9] and in [11] was inactive. For the same compound, the Activity in test [3] came out at 28.7 pmol; in test [4], 3.2 pmol; in test [10] it was 4.8 pmol; in test [12], 84 pmol. In addition, the IC50 was 3 µM in test [6], 0.47 µM in test [7] and 1.1 µM in test [8].
For `CC[C@@H]1C(=O)N(C)c2cnc(Nc3ccc(C(=O)N[C@H]4CC[C@H](N5CCN(CC6CC6)CC5)CC4)cc3OC)nc2N1C(C)C`, the result in test [13] was Active.
`CC(=O)O[C@H]1C(=O)[C@@]2(C)[C@H]([C@H](OC(=O)c3ccccc3)[C@]3(O)C[C@H](OC(=O)[C@H](O)[C@@H](NC(=O)c4ccccc4)c4ccccc4)C(C)=C1C3(C)C)[C@]1(OC(C)=O)CO[C@@H]1C[C@@H]2O`: the inhibition entry in test [14] is “Active”.
Regarding `CC[C@]1(O)C[C@H]2CN(CCc3c([nH]c4ccccc34)[C@@](C(=O)OC)(c3cc4c(cc3OC)N(C=O)[C@H]3[C@@](O)(C(=O)OC)[C@H](OC(C)=O)[C@]5(CC)C=CCN6CC[C@]43[C@@H]65)C2)C1`, the inhibition result in test [15] was “Active”.

The values above are taken from ChEMBL document CHEMBL4665719, “Development of SKI-349, a dual-targeted inhibitor of sphingosine kinase and microtubule polymerization” (Bioorg Med Chem Lett, 2020).
